In EP4745135A1 (Gluetacs Therapeutics (Shanghai) Co., Ltd., priority 2023, dated 2025):

Columns and labels:
[1] = biological target: T1, human Cereblon WT GST-tagged protein (Homo sapiens, UniProt Q96SW2); assay: CRBN-binding affinity, HTRF (CEREBLON BINDING kit); settings: for inhibition at 0.5 µM: read-out: Inhibition Rate at 0.5 µM (%); for inhibition at 2 µM: read-out: Inhibition Rate at 2 µM (%)
T1 construct: purchased CISBIO 64BDCRBNPEH

GSPT1 = assay: Western blot, degradation of substrate protein in hPBMCs; format: cell-based, Human
Description: (§1) Conventional Western blot assay was performed to evaluate the effects of the compounds of the present disclosure on the expression of target proteins in cells. • (1) Cell Seeding and Protein Harvesting: Human peripheral blood mononuclear cells (hPBMCs) at a density of 1×10^6 cells/mL were thawed according to the PBMC Recovery Protocol (Milecell Biotechnologies Inc, Shanghai). […] After 24 hours of compounds treatment, cells were harvested and lysed in RIPA protein lysate containing protease inhibitors on ice for 30 min, followed by centrifugation. The supernatant was aspirated as the extracted total cell protein. The protein concentration of the supernatant was determined using the conventional BCA (Bicinchoninic Acid) assay. • (2) To the collected supernatant, 5X SDS sample loading buffer was added, followed by denaturation at 95°C for 5 minutes. The denatured samples were then separated by SDS-PAGE electrophoresis on a polyacrylamide gel, transferred onto a nitrocellulose membrane (0.45 µm NC membrane), blocked with blocking buffer at room temperature for 1 hour, and subjected to antibody incubation and development procedures according to the antibody manufacturer's instructions (Cell Signaling Technology Company).
(§2) Half-Maximal Degradation Concentration value (the drug concentration required for degrading proteins by 50%, abbreviated as DC50) reads method: comparing the grayscale values of Western blot bands from drug-treated samples with those from blank DMSO-treated controls, and identifying the drug concentration range at which the grayscale value is half that of the DMSO-treated control bands.
(§3) DC50 values can be calculated using ImageJ software to measure grayscale values of Western blot bands from drug-treated samples. The concentration-response curve is fitted to estimate the drug concentration corresponding to half the grayscale value.
(§4) Target protein remaining (%) refers to the percentage of target protein remaining in cells after treatment with protein degrader compounds.
(§5) Calculation method for target protein remaining (%): Use ImageJ software to measure grayscale values of Western blot bands from drug (protein degrader)-treated samples. The grayscale value of drug-treated bands is divided by that of internal control protein bands, and the resulting quotient is normalized to obtain the relative percentage of remaining target protein after protein degrader treatment.
(§6) Target protein degradation rate (%) = 1−target protein remaining (%). [formula]

IKZF1 = biological target: T2, IKZF1 (Homo sapiens, UniProt Q13422+Q96SW2); assay: as above; format: cell-based
T2 construct: effects of the compounds of the present disclosure on the expression of target proteins in cells; endogenous in cells; host or cells: human PBMCs (Milecell Biotechnologies)
Description: as §1, §2, §3, §4, §5, §6

CK1α = biological target: T3, CK1α (Homo sapiens, UniProt P48729+Q96SW2); assay: as above; format: cell-based
T3 construct: effects of the compounds of the present disclosure on the expression of target proteins in cells; endogenous in cells; host or cells: human PBMCs (Milecell Biotechnologies)
Description: as §1, §2, §3, §4, §5, §6

WEE1 = biological target: T4, WEE1 (Homo sapiens, UniProt P30291+Q96SW2); assay: as above; format: cell-based
T4 construct: effects of the compounds of the present disclosure on the expression of target proteins in cells; endogenous in cells; host or cells: human PBMCs (Milecell Biotechnologies)
Description: as §1, §2, §3, §4, §5, §6

IKZF2 = biological target: T5, IKZF2 (Homo sapiens, UniProt Q96SW2+Q9UKS7); assay: as above; format: cell-based
T5 construct: effects of the compounds of the present disclosure on the expression of target proteins in cells; endogenous in cells; host or cells: human PBMCs (Milecell Biotechnologies)
Description: as §1, §2, §3, §4, §5, §6

IKZF3 = biological target: T6, IKZF3 (Homo sapiens, UniProt Q96SW2+Q9UKT9); assay: as above; format: cell-based
T6 construct: effects of the compounds of the present disclosure on the expression of target proteins in cells; endogenous in cells; host or cells: human PBMCs (Milecell Biotechnologies)
Description: as §1, §2, §3, §4, §5, §6

[2] = Western blot, 24 hours of compound treatment, compounds tested at 50 nM and 500 nM (concentration for the table not stated)
[3] = 24 hours treatment, compounds at 50 nM and 500 nM (concentration behind the class not stated)

T1 sequence (Q96SW2 whole entry): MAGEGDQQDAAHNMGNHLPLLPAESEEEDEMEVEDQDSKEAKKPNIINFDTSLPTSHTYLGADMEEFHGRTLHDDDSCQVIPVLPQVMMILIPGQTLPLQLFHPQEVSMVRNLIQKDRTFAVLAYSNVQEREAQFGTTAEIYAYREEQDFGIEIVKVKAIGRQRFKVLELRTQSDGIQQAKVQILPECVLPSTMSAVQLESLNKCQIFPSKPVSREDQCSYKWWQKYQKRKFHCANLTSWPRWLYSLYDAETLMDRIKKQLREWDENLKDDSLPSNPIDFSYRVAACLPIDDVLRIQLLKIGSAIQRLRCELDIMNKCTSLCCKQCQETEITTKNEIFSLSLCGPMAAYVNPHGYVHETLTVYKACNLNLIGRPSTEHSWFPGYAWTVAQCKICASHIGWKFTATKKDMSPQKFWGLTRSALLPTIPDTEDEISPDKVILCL
T5 sequence (Q9UKS7 whole entry): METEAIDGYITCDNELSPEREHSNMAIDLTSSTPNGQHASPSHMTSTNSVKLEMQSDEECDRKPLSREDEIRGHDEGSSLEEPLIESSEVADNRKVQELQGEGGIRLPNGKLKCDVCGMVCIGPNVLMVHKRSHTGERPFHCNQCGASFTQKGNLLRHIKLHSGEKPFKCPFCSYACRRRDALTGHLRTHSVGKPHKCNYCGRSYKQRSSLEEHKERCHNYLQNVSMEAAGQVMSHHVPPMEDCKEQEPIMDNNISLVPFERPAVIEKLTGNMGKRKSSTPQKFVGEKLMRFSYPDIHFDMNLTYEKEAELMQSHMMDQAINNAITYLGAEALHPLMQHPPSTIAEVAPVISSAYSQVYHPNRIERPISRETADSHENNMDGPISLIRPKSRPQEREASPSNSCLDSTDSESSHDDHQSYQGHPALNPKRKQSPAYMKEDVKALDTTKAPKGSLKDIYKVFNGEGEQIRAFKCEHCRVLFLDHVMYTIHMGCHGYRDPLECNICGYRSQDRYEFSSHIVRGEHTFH
T5 sequence (Q96SW2 whole entry): as the sequence (Q96SW2 whole entry) above
T5 sequence (Q16531 whole entry partner): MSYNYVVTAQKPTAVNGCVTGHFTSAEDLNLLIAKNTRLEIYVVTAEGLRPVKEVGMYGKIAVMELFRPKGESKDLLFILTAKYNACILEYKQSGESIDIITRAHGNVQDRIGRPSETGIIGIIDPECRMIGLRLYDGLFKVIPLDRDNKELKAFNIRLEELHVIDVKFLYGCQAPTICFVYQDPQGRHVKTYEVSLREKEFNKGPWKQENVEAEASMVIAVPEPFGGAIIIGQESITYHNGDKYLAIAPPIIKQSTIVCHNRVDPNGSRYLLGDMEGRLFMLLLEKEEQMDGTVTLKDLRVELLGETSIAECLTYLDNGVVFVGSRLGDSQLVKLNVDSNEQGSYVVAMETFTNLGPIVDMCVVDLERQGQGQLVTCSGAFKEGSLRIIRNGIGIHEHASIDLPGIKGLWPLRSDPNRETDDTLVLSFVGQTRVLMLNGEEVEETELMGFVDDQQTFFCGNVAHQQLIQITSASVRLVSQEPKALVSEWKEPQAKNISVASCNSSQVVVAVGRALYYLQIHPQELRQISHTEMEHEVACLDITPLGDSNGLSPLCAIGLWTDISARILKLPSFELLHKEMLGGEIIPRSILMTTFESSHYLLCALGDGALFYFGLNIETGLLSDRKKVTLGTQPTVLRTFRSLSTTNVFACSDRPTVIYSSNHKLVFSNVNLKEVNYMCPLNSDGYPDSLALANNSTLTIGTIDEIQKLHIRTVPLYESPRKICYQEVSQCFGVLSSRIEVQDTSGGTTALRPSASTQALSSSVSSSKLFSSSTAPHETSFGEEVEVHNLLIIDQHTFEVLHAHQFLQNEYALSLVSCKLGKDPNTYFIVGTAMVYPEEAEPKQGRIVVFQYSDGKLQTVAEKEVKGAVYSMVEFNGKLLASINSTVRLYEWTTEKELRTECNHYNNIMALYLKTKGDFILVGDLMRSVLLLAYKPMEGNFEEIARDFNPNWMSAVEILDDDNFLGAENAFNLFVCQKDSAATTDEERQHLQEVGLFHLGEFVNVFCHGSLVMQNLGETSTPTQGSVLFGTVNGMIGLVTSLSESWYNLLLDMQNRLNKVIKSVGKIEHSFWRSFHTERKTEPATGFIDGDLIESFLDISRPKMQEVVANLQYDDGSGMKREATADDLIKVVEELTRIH
T3 sequence (P48729 whole entry): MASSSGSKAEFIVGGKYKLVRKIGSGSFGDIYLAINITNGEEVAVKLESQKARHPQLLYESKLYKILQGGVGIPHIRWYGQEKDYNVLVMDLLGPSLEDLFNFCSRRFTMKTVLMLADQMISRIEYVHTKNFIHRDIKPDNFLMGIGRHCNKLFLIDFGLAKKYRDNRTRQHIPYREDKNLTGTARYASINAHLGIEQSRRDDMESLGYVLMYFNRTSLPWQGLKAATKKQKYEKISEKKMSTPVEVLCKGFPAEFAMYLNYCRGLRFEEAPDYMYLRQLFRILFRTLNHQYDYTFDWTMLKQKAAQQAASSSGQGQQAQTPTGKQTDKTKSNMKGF
T3 sequence (Q96SW2 whole entry): as the sequence (Q96SW2 whole entry) above
T3 sequence (Q16531 whole entry partner): as the sequence (Q16531 whole entry partner) above
T4 sequence (P30291 whole entry): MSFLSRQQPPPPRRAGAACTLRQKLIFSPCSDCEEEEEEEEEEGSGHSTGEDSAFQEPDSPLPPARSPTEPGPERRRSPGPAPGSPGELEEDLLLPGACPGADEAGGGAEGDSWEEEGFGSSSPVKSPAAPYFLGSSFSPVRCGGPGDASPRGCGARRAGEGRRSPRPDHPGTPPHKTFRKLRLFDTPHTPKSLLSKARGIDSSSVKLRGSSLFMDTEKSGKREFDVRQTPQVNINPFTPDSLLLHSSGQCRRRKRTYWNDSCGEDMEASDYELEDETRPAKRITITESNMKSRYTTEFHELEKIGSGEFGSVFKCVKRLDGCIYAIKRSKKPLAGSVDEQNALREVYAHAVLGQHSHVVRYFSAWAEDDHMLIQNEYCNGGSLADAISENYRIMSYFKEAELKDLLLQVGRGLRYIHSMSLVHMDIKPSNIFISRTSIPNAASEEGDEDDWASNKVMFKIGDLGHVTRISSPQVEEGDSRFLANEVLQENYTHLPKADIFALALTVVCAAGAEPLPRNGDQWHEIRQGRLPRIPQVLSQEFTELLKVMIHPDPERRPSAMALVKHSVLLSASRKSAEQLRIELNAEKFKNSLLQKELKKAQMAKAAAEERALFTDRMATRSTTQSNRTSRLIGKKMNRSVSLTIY
T4 sequence (Q96SW2 whole entry): as the sequence (Q96SW2 whole entry) above
T4 sequence (Q16531 whole entry partner): as the sequence (Q16531 whole entry partner) above
T2 sequence (Q13422 whole entry): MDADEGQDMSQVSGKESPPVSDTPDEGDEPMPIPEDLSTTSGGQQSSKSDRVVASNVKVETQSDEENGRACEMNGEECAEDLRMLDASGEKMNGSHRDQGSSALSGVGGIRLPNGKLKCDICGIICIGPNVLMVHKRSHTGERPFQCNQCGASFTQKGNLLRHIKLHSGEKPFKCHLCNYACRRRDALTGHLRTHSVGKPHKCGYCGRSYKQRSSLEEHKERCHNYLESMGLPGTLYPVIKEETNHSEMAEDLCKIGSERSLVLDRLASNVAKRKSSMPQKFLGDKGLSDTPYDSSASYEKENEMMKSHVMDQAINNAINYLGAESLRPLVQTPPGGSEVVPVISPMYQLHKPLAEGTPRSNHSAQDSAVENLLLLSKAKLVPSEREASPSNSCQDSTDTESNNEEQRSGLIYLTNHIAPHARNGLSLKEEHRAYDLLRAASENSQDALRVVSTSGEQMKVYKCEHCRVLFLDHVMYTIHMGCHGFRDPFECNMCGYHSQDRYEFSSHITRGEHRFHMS
T2 sequence (Q96SW2 whole entry): as the sequence (Q96SW2 whole entry) above
T2 sequence (Q16531 whole entry partner): as the sequence (Q16531 whole entry partner) above
T6 sequence (Q9UKT9 whole entry): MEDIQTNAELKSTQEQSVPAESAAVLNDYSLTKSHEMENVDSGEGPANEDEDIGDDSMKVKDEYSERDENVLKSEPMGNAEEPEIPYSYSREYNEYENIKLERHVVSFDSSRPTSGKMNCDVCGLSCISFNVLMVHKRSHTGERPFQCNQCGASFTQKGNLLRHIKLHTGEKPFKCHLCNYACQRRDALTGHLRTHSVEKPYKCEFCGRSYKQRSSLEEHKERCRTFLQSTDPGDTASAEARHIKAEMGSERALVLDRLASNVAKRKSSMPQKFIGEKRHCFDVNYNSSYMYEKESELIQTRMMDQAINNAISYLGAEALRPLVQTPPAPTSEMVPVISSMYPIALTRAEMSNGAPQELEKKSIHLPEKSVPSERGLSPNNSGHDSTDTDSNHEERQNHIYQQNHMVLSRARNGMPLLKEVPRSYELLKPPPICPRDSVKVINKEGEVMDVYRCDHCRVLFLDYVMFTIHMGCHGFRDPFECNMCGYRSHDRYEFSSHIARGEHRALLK
T6 sequence (Q96SW2 whole entry): as the sequence (Q96SW2 whole entry) above
T6 sequence (Q16531 whole entry partner): as the sequence (Q16531 whole entry partner) above

Structure (SMILES)	inhibition at 0.5 µM [1] [%]	inhibition at 2 µM [1] [%]	GSPT1 substrate protein remaining % (GSPT1; [2])	IKZF 1 substrate protein remaining % (IKZF1; [2])	CK1α substrate protein remaining % (CK1α; [2])	Wee1 substrate protein remaining % (WEE1; [2])	IKZF2 substrate protein remaining % (IKZF2; [2])	IKZF3 substrate protein remaining % (IKZF3; [2])	IC50 ([1]; CRBN binding, HTRF, 3 hours at room temperature, read-out: HTRF IC50) [nM]	GSPT1 substrate protein remaining % (GSPT1; [3])	IKZF 1 substrate protein remaining % (IKZF1; [3])	CK1α substrate protein remaining % (CK1α; [3])	Wee1 substrate protein remaining % (WEE1; [3])	IKZF2 substrate protein remaining % (IKZF2; [3])	IKZF3 substrate protein remaining % (IKZF3; [3])
O=C1CCC(N2Cc3c(CN4CCN(c5ncccn5)CC4)cccc3C2=S)C(=O)N1 (stereo not shown) [GT-08812, 3-(4-((4-(pyrimidin-2-yl)piperazin-1-yl)methyl)-1-thioxoisoindolin-2-yl)piperidine-2,6-dione]	60 to 80	80 to 100	B (80%< substrate protein remaining %≤ 100%)	B (80%< substrate protein remaining %≤ 100%)	B (80%< substrate protein remaining %≤ 100%)	A (0% ≤ substrate protein remaining % ≤ 80%)	B (80%< substrate protein remaining %≤ 100%)	B (80%< substrate protein remaining %≤ 100%)							
O=C1CCC(N2Cc3ccc(CO)cc3C2=S)C(=O)N1 (stereo not shown) [GT-05566, 3-(6-(hydroxymethyl)-1-thioxoisoindolin-2-yl)piperidine-2,6-dione]									100 to 500	B (80%< substrate protein remaining %≤ 100%)	A (0% ≤ substrate protein remaining % ≤ 80%)	B (80%< substrate protein remaining %≤ 100%)	A (0% ≤ substrate protein remaining % ≤ 80%)	A (0% ≤ substrate protein remaining % ≤ 80%)	A (0% ≤ substrate protein remaining % ≤ 80%)
Cc1cc2c(N3CCN(Cc4cccc5c4CN(C4CCC(=O)NC4=O)C5=S)CC3)ncnc2s1 (stereo not shown) [GT-08914, 3-(4-((4-(6-methylthieno[2,3-d]pyrimidin-4-yl)piperazin-1-yl)methyl)-1-thioxoisoindolin-2-yl)piperidine-2,6-dione]	60 to 80	80 to 100								B (80%< substrate protein remaining %≤ 100%)	B (80%< substrate protein remaining %≤ 100%)	B (80%< substrate protein remaining %≤ 100%)	A (0% ≤ substrate protein remaining % ≤ 80%)	B (80%< substrate protein remaining %≤ 100%)	B (80%< substrate protein remaining %≤ 100%)
O=C1CCC(N2Cc3cc(CN4CCN(C(c5ccccc5)c5ccncc5)CC4)ccc3C2=S)C(=O)N1 (stereo not shown) [GT-07733, 3-(5-((4-(phenyl(pyridin-4-yl)methyl)piperazin-1-yl)methyl)-1-thioxoisoindolin-2-yl)piperidine-2,6-dione]	60 to 80	80 to 100	A (0% ≤ substrate protein remaining % ≤ 80%)	B (80%< substrate protein remaining %≤ 100%)	B (80%< substrate protein remaining %≤ 100%)	A (0% ≤ substrate protein remaining % ≤ 80%)	B (80%< substrate protein remaining %≤ 100%)	A (0% ≤ substrate protein remaining % ≤ 80%)							
O=C1CCC(N2Cc3c(CN4CCN(c5cc(F)ccc5F)CC4)cccc3C2=S)C(=O)N1 (stereo not shown) [GT-08593, 3-(4-((4-(2,5-difluorophenyl)piperazin-1-yl)methyl)-1-thioxoisoindolin-2-yl)piperidine-2,6-dione]	40 to 53	60 to 80	B (80%< substrate protein remaining %≤ 100%)	B (80%< substrate protein remaining %≤ 100%)	B (80%< substrate protein remaining %≤ 100%)	A (0% ≤ substrate protein remaining % ≤ 80%)	B (80%< substrate protein remaining %≤ 100%)	B (80%< substrate protein remaining %≤ 100%)							
Cc1nc(C2=CCN(Cc3cccc4c3CN(C3CCC(=O)NC3=O)C4=S)CC2)c2c(-c3ccccc3)csc2n1 (stereo not shown) [GT-08958, 3-(4-((4-(2-methyl-5-phenylthieno[2,3-d]pyrimidin-4-yl)-3,6-dihydropyridin-1(2H)-yl)methyl)-1-thioxoisoindolin-2-yl)piperidine-2,6-dione]	60 to 80	80 to 100								B (80%< substrate protein remaining %≤ 100%)	B (80%< substrate protein remaining %≤ 100%)	B (80%< substrate protein remaining %≤ 100%)	A (0% ≤ substrate protein remaining % ≤ 80%)	B (80%< substrate protein remaining %≤ 100%)	B (80%< substrate protein remaining %≤ 100%)
Cc1cscc1N1CCN(Cc2cccc3c2CN(C2CCC(=O)NC2=O)C3=S)CC1 (stereo not shown) [GT-08306, 3-(4-((4-(4-methylthiophen-3-yl)piperazin-1-yl)methyl)-1-thioxoisoindolin-2-yl)piperidine-2,6-dione]	53 to 60	80 to 100								B (80%< substrate protein remaining %≤ 100%)	B (80%< substrate protein remaining %≤ 100%)	B (80%< substrate protein remaining %≤ 100%)	A (0% ≤ substrate protein remaining % ≤ 80%)	B (80%< substrate protein remaining %≤ 100%)	B (80%< substrate protein remaining %≤ 100%)
O=C1CCC(N2Cc3c(CN4CCN(c5ccccc5Cl)CC4)cccc3C2=S)C(=O)N1 (stereo not shown) [GT-08265, 3-(4-((4-(2-chlorophenyl)piperazin-1-yl)methyl)-1-thioxoisoindolin-2-yl)piperidine-2,6-dione]	40 to 53	53 to 60	A (0% ≤ substrate protein remaining % ≤ 80%)	B (80%< substrate protein remaining %≤ 100%)	B (80%< substrate protein remaining %≤ 100%)	A (0% ≤ substrate protein remaining % ≤ 80%)	B (80%< substrate protein remaining %≤ 100%)	B (80%< substrate protein remaining %≤ 100%)							
O=C1CCC(N2Cc3c(CN4CCC(c5ccoc5)CC4)cccc3C2=S)C(=O)N1 (stereo not shown) [GT-08317, 3-(4-((4-(furan-3-yl)piperidin-1-yl)methyl)-1-thioxoisoindolin-2-yl)piperidine-2,6-dione]	40 to 53	60 to 80								B (80%< substrate protein remaining %≤ 100%)	B (80%< substrate protein remaining %≤ 100%)	B (80%< substrate protein remaining %≤ 100%)	A (0% ≤ substrate protein remaining % ≤ 80%)	A (0% ≤ substrate protein remaining % ≤ 80%)	A (0% ≤ substrate protein remaining % ≤ 80%)
O=C1CCC(N2Cc3c(CN4C[C@H]5C[C@@H]4CN5C(c4ccccc4)c4ccccc4)cccc3C2=S)C(=O)N1 (stereo partly drawn) [GT-08208, 3-(4-(((1R,4R)-5-benzhydryl-2,5-diazabicyclo[2.2.1]heptan-2-yl)methyl)-1-thioxoisoindolin-2-yl)piperidine-2,6-dione]	40 to 53	80 to 100	A (0% ≤ substrate protein remaining % ≤ 80%)	B (80%< substrate protein remaining %≤ 100%)	B (80%< substrate protein remaining %≤ 100%)	A (0% ≤ substrate protein remaining % ≤ 80%)	A (0% ≤ substrate protein remaining % ≤ 80%)	B (80%< substrate protein remaining %≤ 100%)							
